Results taken from the supplement of paper PMC10307832.

What follows are cell lines tested with Cc1ccc(Nc2nccc(N(C)c3ccc4c(C)n(C)nc4c3)n2)cc1S(N)(=O)=O [Pazopanib] + CC(=O)c1c(C)c2cnc(Nc3ccc(N4CCNCC4)cn3)nc2n(C2CCCC2)c1=O [Palbociclib] (partner 0.5 µM) (assay: relative viability (nuclei count vs DMSO), 5 days (fraction); higher = more cells survive). Conditions: first compound 0.01 µM.
How it was run: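 Relative viability was taken as the ratio of nuclei in treated wells to nuclei in vehicle wells. Lung cancer cell lines in 1536-well plates received compounds by pin tool one day after seeding, either one drug alone or a fixed anchor-drug dose plus five library-drug doses (not always all listed) in √10 steps. Nuclei were counted on 4× images after 5 days of treatment, and values are medians of duplicate plates.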

Row | Cell Line | relative viability
1 | NCI-H2342 | 0.538
2 | NCI-H838 | 0.181
3 | NCI-H1650 | 0.333
4 | NCI-H2347 | 0.422
5 | PC-14 | 0.561
6 | LCLC-103H | 0.409
7 | NCI-H2126 | 0.337
8 | NCI-H2085 | 0.483
9 | HCC-366 | 0.36
10 | NCI-H1666 | 0.636
11 | NCI-H647 | 0.345
12 | LK-2 | 0.615
13 | NCI-H2087 | 0.21
14 | NCI-H1395 | 0.572
15 | H3255 | 0.314
16 | COR-L23 | 0.297
17 | COR-L 105 | 0.364
18 | LOU-NH91 | 0.511
19 | ChaGo-K-1 | 0.949
20 | NCI-H358 | 0.134
21 | NCI-H3122 | 0.194
22 | HOP-62 | 0.436

Row | Cell Line | relative viability
23 | HCC-44 | 0.921
24 | NCI-H522 | 0.973
25 | BEN | 0.447
26 | HARA | 0.238
27 | SW 900 | 0.463
28 | HCC-78 | 0.465
29 | NCI-H441 | 0.24
30 | NCI-H2009 | 0.222
31 | A-427 | 0.536
32 | NCI-H460 | 0.212
33 | NCI-H727 | 0.662
34 | NCI-H1734 | 0.33
35 | NCI-H520 | 0.185
36 | NCI-H2405 | 0.467
37 | SW 1573 | 0.468
38 | 201T | 0.332
39 | NCI-H1915 | 0.508
40 | HCC-827 | 0.558
41 | LXF-289 | 0.591
42 | NCI-H23 | 0.42
43 | NCI-H650 | 0.344

Same assay, conditions: first compound 0.03162 µM

Row | Cell Line | relative viability
44 | NCI-H2342 | 0.501
45 | NCI-H838 | 0.216
46 | NCI-H1650 | 0.433
47 | NCI-H1993 | 0.617
48 | NCI-H2347 | 0.452
49 | PC-14 | 0.585
50 | LCLC-103H | 0.517
51 | NCI-H2126 | 0.322
52 | EMC-BAC-2 | 0.522
53 | NCI-H2085 | 0.462
54 | HCC-366 | 0.422
55 | NCI-H1666 | 0.604
56 | NCI-H647 | 0.463
57 | LK-2 | 0.803
58 | NCI-H2087 | 0.223
59 | NCI-H1395 | 0.647
60 | H3255 | 0.315
61 | COR-L23 | 0.323
62 | COR-L 105 | 0.363
63 | LOU-NH91 | 0.502
64 | ChaGo-K-1 | 0.927
65 | NCI-H358 | 0.141
66 | NCI-H3122 | 0.175
67 | HOP-62 | 0.472

Row | Cell Line | relative viability
68 | HCC-44 | 0.932
69 | NCI-H522 | 0.97
70 | LU99A | 0.39
71 | BEN | 0.467
72 | HARA | 0.255
73 | SW 900 | 0.636
74 | HCC-78 | 0.511
75 | NCI-H441 | 0.248
76 | LCLC-97TM1 | 0.202
77 | NCI-H2009 | 0.218
78 | A-427 | 0.565
79 | NCI-H460 | 0.287
80 | NCI-H1734 | 0.369
81 | NCI-H520 | 0.23
82 | NCI-H2405 | 0.531
83 | SW 1573 | 0.349
84 | NCI-H1793 | 0.352
85 | 201T | 0.356
86 | NCI-H1915 | 0.525
87 | HCC-827 | 0.456
88 | LXF-289 | 0.581
89 | NCI-H23 | 0.531
90 | NCI-H650 | 0.381

Same assay, conditions: first compound 0.1 µM

Row | Cell Line | relative viability
91 | NCI-H2342 | 0.496
92 | NCI-H838 | 0.243
93 | NCI-H1650 | 0.375
94 | NCI-H1993 | 0.631
95 | NCI-H2347 | 0.406
96 | PC-14 | 0.568
97 | LCLC-103H | 0.495
98 | NCI-H2126 | 0.354
99 | EMC-BAC-2 | 0.488
100 | NCI-H2085 | 0.487
101 | HCC-366 | 0.449
102 | NCI-H1666 | 0.607
103 | NCI-H647 | 0.363
104 | LK-2 | 0.69
105 | NCI-H2087 | 0.275
106 | NCI-H1648 | 0.229
107 | NCI-H1395 | 0.659
108 | H3255 | 0.349

Row | Cell Line | relative viability
109 | COR-L23 | 0.353
110 | COR-L 105 | 0.413
111 | LOU-NH91 | 0.564
112 | ChaGo-K-1 | 0.973
113 | NCI-H358 | 0.121
114 | NCI-H3122 | 0.217
115 | HOP-62 | 0.424
116 | HCC-44 | 0.943
117 | NCI-H522 | 1.05
118 | LU99A | 0.447
119 | BEN | 0.498
120 | HARA | 0.295
121 | HCC-78 | 0.4
122 | NCI-H441 | 0.198
123 | LCLC-97TM1 | 0.212
124 | NCI-H2009 | 0.185
125 | A-427 | 0.476
126 | NCI-H460 | 0.122
